Patent US20040038888A1 (priority 2002, published 2004)

How the values were obtained:
CREB phosphorylation = experiment: Western blot of phosphorylated CREB, undifferentiated aHNSC; type: cell-based, human; details: 10 nM PACAP
Experimental: A biopsy from the anterior lateral wall of the lateral ventricle was taken from an adult human patient and enzymatically dissociated in PDD (Papain 2.5 U/ml; Dispase 1 U/ml; Dnase 1 250 U/ml) in DMEM containing 4.5 mg/ml glucose and 37° C. for 20 min. The cells were gently triturated and mixed with three volumes of Human Neural Stem Cell Plating Medium (HNSCPM) (DMEM/F12; 10% fetal bovine serum (FBS)). The cells were pelleted at 250×g for 5 min. The supernatant was subsequently removed and the cells resuspended in HNSCPM, plated out on fibronectin coated culture dishes and incubated at 37° C. in 5% CO2. The following day the expansion of the culture was initiated by change of media to aHNSC culture media (DMEM/F12; BIT 9500; EGF 20 ng/ml; FGF2 20 ng/ml). The aHNSC were split using trypsin and EDTA under standard conditions. FBS was subsequently added to inhibit the reaction and the cells collected by centrifugation at 250×g for 5 min. The aHNSC were replated in aHNSC culture media.
Adult mouse NSC and aHNSC were prepared and cultured as stated in Example 2 (Method A) and Example 1 (Method A). Cultures were exposed to either 10 nM PACAP or EGF (1 nM) and FGF (1 nM) for the times indicated. […] DNA content was detemined by the use of a Pico Green-kit for ds DNA quantitation of cell extracts. […] Phosphorylated CREB protein bands (43 kD) were detected using the ECL-kit (Amersham).

[1] = test system: mouse adult neural stem cells; experiment: Intracellular ATP assay, adult mouse NSC, non-adherent culture; type: cell-based
Experimental: The anterior lateral wall of the lateral ventricle of 5-6 week old mice was enzymatically dissociated in 0.8 mg/ml hyaluronidase and 0.5 mg/ml trypsin in DMEM containing 4.5 mg/ml glucose and 80 units/ml DNase at 37° C. for 20 min. The cells were gently triturated and mixed with three volumes of Neurosphere medium (DMEM/F12, B27 supplement, 12.5 mM HEPES pH7.4) containing 20 ng/ml EGF (unless otherwise stated), 100 units/ml penicillin and 100μg/ml streptomycin. After passing through a 70 μm strainer, the cells were pelleted at 160×g for 5 min. The supernatant was subsequently removed and the cells resuspended in Neurosphere medium supplemented as above, plated out in culture dishes and incubated at 37° C. Neurospheres were ready to be split approximately 7 days after plating.
To split neurosphere cultures, neurospheres were collected by centrifugation at 160×g for 5 min. The neurospheres were resuspended in 0.5 ml Trypsin/EDTA in HBSS (1×), incubated at 37° C. for 2 min and triturated gently to aid dissociation. Following a further 3 min incubation at 37° C. and trituration, 3 volumes of ice cold NSPH-media-EGF were added to stop further trypsin activity. The cells were pelleted at 220×g for 4 min, resuspended in fresh Neurosphere medium supplemented with 20 ng/ml EGF and 1 nM bFGF plated out and incubated at 37° C.
Mouse neurospheres, cultured as described above, from passage 2, were seeded in DMEM/F12 supplemented with B27 into a 96-well plate as single cells (10000 cells/well) to the substances to be measured were added at the concentrations indicated. After 3 days incubation, intracellular ATP was measured using the ATP-SL kit from BioThema, Sweden, according to the manufacturer's instructions. PACAP and VIP were purchased from Bachem. Maxadilan was a kind gift from Richard G Titus, Dept Microbiology, Immunology and Pathology, College of Veterinary Medicine and Biological Sciences, Colorado State University.
In experiments where signalling pathways were examined, cells were seeded as single cells as mentioned above. PACAP, 100 nM, was co incubated with 10 uM PKA inhibitor H89 (Alexis-Biochemicals) or 1 uM PLC inhibitor U73122 (Alexis-Biochemicals) or 1 uM of the PKC inhibitor Gö6976 (Sigma-Aldrich). Cells were incubated for 4 days before measurements of ATP.
In the experiment analysing the combinatory effect of PACAP and EGF, PACAP at 100 nM was co-incubated with 3 nM EGF for 3 days.

Substance: pituitary adenylate cyclase-activating polypeptide [PACAP]
- CREB phosphorylation (CREB phosphorylation; 15 min): strong upregulation
- CREB phosphorylation (CREB phosphorylation; 240 min): slightly above basal levels
- intracellular ATP levels ([1]; PACAP 100 nM, 4 days, relative to control): significantly increases intracellular ATP levels
- intracellular ATP levels, and hence NSC number ([1]; PACAP 100 nM, EGF 3 nM, alone or combined, 3 days): increased intracellular ATP levels
- intracellular ATP levels, and hence cell number ([1]; varying concentrations, non-adherent conditions, 3 days, relative to control, dose-dependent): statistically significant increase in intracellular ATP levels
